Here are results for one molecule from PMC4997609, “Wedelolactone enhances osteoblastogenesis by regulating Wnt/β-catenin signaling pathway but suppresses osteoclastogenesis by NF-κB/c-fos/NFATc1 pathway” (Scientific Reports, 2016).

In this test the target is T1, GSK3β (Homo sapiens, UniProt P49841).
T1 construct: gene GSK3B
As to the kind of experiment: ADP-Glo kinase assay with GSK3β, GSK3β substrate and […] ATP. It counts as biochemical.

T1 sequence (P49841 whole entry): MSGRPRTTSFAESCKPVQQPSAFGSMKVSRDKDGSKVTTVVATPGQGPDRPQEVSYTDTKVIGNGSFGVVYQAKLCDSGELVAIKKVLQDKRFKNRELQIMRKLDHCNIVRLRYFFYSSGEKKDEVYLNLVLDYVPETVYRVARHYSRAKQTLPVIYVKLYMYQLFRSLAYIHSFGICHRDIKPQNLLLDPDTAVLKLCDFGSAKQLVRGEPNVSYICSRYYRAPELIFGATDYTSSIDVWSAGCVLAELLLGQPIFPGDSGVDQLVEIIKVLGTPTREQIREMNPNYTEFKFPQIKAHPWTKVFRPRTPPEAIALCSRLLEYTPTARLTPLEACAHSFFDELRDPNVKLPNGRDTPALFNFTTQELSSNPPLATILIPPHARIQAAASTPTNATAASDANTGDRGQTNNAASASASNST

What is called IC50 is the concentration that inhibits the measured activity by half. For the molecule `COc1cc(O)c2c(c1)oc(=O)c1c3cc(O)c(O)cc3oc21` [wedelolactone], the IC50 came out at 21.7 µM. This lies in the double-digit micromolar range.
